“Also recorded” adds a separate entry of the source. Where two headings read alike, the source gives them in different places.
Columns and labels:
[1] = Crystallinity (X-rays / powder X-ray diffraction); assay type: physicochemical; conditions: for Crystallinity (Powder X-Ray Diffraction): salts of Example 2C; for Crystallinity (X-Rays): salts of Example 2A; for degree of crystallinity (Powder X-Ray Diffraction): salts of Example 2B, fumarate
From the text: (§1) Crystallinity (Powder X-Ray Diffraction)
as §1

[2] = Hygroscopicity (DVS, storage at RT/different RHs and at 40° C./75% RH); assay type: physicochemical
Protocol: Hygroscopicity (DVS, Storage at RT/Different RHs and at 40° C./75% RH)

[3] = Intrinsic dissolution rate; assay type: physicochemical; conditions: for intrinsic dissolution rate (in words, order): salts of Example 2B
From the text: Intrinsic Dissolution Rate (pH 1.2)
(§2) Solubility and Intrinsic Dissolution Rate

[4] = Chemical stability (2 weeks at 65° C.); assay type: physicochemical; conditions: salts of Example 2A, also RT/90% RH
Protocol: Chemical Stability (2 Weeks at 65° C.)

[5] = Polymorphism screen (RT evaporation, cooling crystallization at −20° C.); assay type: physicochemical; conditions: salts of Example 2A, cooling crystallization at −20° C. in different solvent or mixtures
[6] = assessment, no test described, cited from earlier work
[7] = Solubility
From the text: Solubility (Water, pH 1.2 and pH 7.4 Buffers)
as §2

[8] = Chemical stability during storage; conditions: long term storage; free base vs hydrochloride
[9] = controlled studies; cited from earlier work
[10] = listed as L-malate, L-malate salt
[11] = salts of Example 2A, DVS, storage at RT/different RHs
[12] = salts of Example 2C, purified water, preliminary studies

Molecule: CCOc1ncccc1OCCOc1nccnc1N1CCNC[C@H]1C.O=C(O)CCC(=O)O
- melting point: 116 to 132 °C

Molecule: C[C@@H]1CNCCN1c1nccnc1OCCOc1cccnc1OCCN(C)C.O=C(O)C(O)C(O)C(=O)O [D-tartrate, (2R)-1-[3-(2-{[2-(2-dimethylaminoethoxy)-3-pyridinyl]oxy}ethoxy)-2-pyrazinyl]-2-methylpiperazine, D-tartrate]
- Crystallinity (Powder X-Ray Diffraction) [1]: low degree of crystallinity
- Hygroscopicity ([2]; salts of Example 2C): very hygroscopic and deliquescent

Molecule: CCOc1ncccc1OCCOc1nccnc1N1CCNC[C@H]1C [Example 2B, (2R)-1-(3-{2-[(2-ethoxy-3-pyridinyl)oxy]ethoxy}-2-pyrazinyl)-2-methylpiperazine]
- intrinsic dissolution rate (in words, order) [3]: base<fumarate<succinate

Molecule: C[C@@H]1CNCCN1c1nccnc1OCCOc1cccnc1.O=C(O)C[C@H](O)C(=O)O [Example 3A, (2R)-methyl-1-{3-[2-(3-pyridinyloxy)ethoxy]-2-pyrazinyl}piperazine, L-malate salt]
- Chemical stability ([4]; L-malate salt): higher chemical stability
- Chemical stability [4, 10]: Positive data; also recorded: high chemical stability
- Polymorphism [5]: did not show other polymorphs
- Crystallinity (X-Rays) ([1]; L-malate salt): higher crystallinity
- Crystallinity (X-Rays) [1, 10]: Positive results; also recorded: high crystallinity
- behavior upon exposition to 40° C./75% RH ([2]; salts of Example 2A): good behavior
- Hygroscopicity ([2]; salts of Example 2A, DVS, storage at RT/different RHs, L-malate salt): less hygroscopic
- Hygroscopicity ([2]; salts of Example 2A, DVS, storage at RT/different RHs, listed as L-malate, L-malate salt): low hygroscopicity
- Toxicological acceptability ([6]; salts of Example 2A): low toxicity

Molecule: C[C@@H]1CNCCN1c1nccnc1OCCOc1cccnc1OCCN(C)C.O=P(O)(O)O [Example 3C, (2R)-1-[3-(2-{[2-(2-dimethylaminoethoxy)-3-pyridinyl]oxy}ethoxy)-2-pyrazinyl]-2-methylpiperazine, phosphoric acid salt]
- melting point: 140 to 168 °C
- solubility (in words, comparison of salts) ([7]; salts of Example 2C): high solubility
- solubility ([7]; water): ≥ 590 mg/mL
- Crystallinity (Powder X-Ray Diffraction) [1]: predominantely crystalline to moderately crystallinity; also recorded: high crystallinity
- Hygroscopicity ([2]; salts of Example 2C): low and low hygroscopicity
- Toxicological acceptability ([6]; salts of Example 2C): low toxicity

Molecule: C[C@@H]1CNCCN1c1nccnc1Cl.Cl [Example 9, (2R)-1-(3-chloro-2-pyrazinyl)-2-methylpiperazine, hydrochloride]
- stability for storage [8]: considerably more stable
- melting point: 209 to 210.5 °C

Molecule: C[C@@H]1CNCCN1c1nccnc1OCCOc1cccnc1.O=C(O)c1ccccc1 [benzoate, (2R)-methyl-1-{3-[2-(3-pyridinyloxy)ethoxy]-2-pyrazinyl}piperazine, benzoate]
- Chemical stability [4]: Positive data
- Polymorphism [5]: did not show other polymorphs
- Crystallinity (X-Rays) [1]: Positive results
- Hygroscopicity [2, 11]: cake formation and darkening

Molecule: C[C@@H]1CNCCN1c1nccnc1OCCOc1cccnc1OCCN(C)C.O=C(O)CC(O)(CC(=O)O)C(=O)O [citrate, (2R)-1-[3-(2-{[2-(2-dimethylaminoethoxy)-3-pyridinyl]oxy}ethoxy)-2-pyrazinyl]-2-methylpiperazine, citrate]
- Crystallinity (Powder X-Ray Diffraction) [1]: practically amorphous
- Hygroscopicity ([2]; salts of Example 2C): very hygroscopic and deliquescent

Molecule: CCN[C@@H](C)Cc1cccc(C(F)(F)F)c1 [dexfenfluramine]
- weight reduction [9]: weight reduction

Molecule: C[C@@H]1CNCCN1c1nccnc1OCCOc1cccnc1OCCN(C)C.O=C(O)CN(CCN(CC(=O)O)CC(=O)O)CC(=O)O [edeteate, (2R)-1-[3-(2-{[2-(2-dimethylaminoethoxy)-3-pyridinyl]oxy}ethoxy)-2-pyrazinyl]-2-methylpiperazine, edeteate]
- Crystallinity (Powder X-Ray Diffraction) [1]: practically amorphous
- Hygroscopicity ([2]; salts of Example 2C): very hygroscopic and deliquescent

Molecule: CNCCC(Oc1ccc(C(F)(F)F)cc1)c1ccccc1 (stereo not drawn) [fluoxetine]
- weight reduction [9]: weight reduction

Molecule: CCOc1ncccc1OCCOc1nccnc1N1CCNC[C@H]1C.O=C(O)/C=C/C(=O)O [fumarate, (2R)-1-(3-{2-[(2-ethoxy-3-pyridinyl)oxy]ethoxy}-2-pyrazinyl)-2-methylpiperazine, fumarate, reference compound]
- intrinsic dissolution rate (in words, order) ([3]; fumarate): base<fumarate<succinate
- intrinsic dissolution rate (in words, order) ([3]; listed as fumarate salt, fumarate): inferior to that of the succinate salt
- solubility ([7]; 0.9% w/w NaCl, saline or isotonic): > 93 mg/mL
- solubility ([7]; phosphate buffer, pH 7.4, aqueous buffer): > 68 mg/mL
- solubility (in words, comparison of salts) ([7]; salts of Example 2B): inferior to that of the succinate salt
- degree of crystallinity (Powder X-Ray Diffraction) [1]: succinate>acetate>fumarate
- degree of crystallinity (Powder X-Ray Diffraction) ([1]; listed as fumarate salt): inferior to that of the succinate salt

Molecule: C[C@@H]1CNCCN1c1nccnc1OCCOc1cccnc1OCCN(C)C.O=C(O)[C@@H](O)[C@H](O)[C@H](O)[C@@H](O)C(=O)O [galactareate, (2R)-1-[3-(2-{[2-(2-dimethylaminoethoxy)-3-pyridinyl]oxy}ethoxy)-2-pyrazinyl]-2-methylpiperazine, galactareate (mucic acid salt)]
- Crystallinity (Powder X-Ray Diffraction) [1]: partially amorphous

Molecule: C[C@@H]1CNCCN1c1nccnc1OCCOc1cccnc1.Cl [hydrochloride, (2R)-methyl-1-{3-[2-(3-pyridinyloxy)ethoxy]-2-pyrazinyl}piperazine, hydrochloride, reference compound]
- Crystallinity (X-Rays) [1]: lower crystallinity
- Hygroscopicity [2, 11]: deliquescent

Molecule: C[C@@H]1CNCCN1c1nccnc1OCCOc1cccnc1OCCN(C)C.O=C(O)C(=O)O [oxalate, (2R)-1-[3-(2-{[2-(2-dimethylaminoethoxy)-3-pyridinyl]oxy}ethoxy)-2-pyrazinyl]-2-methylpiperazine, oxalate]
- Crystallinity (Powder X-Ray Diffraction) [1]: high degree of crystallinity
- Hygroscopicity ([2]; salts of Example 2C): low
- Toxicological acceptability ([6]; salts of Example 2C): inappropriate due to toxicological reasons

Molecule: C[C@@H]1CNCCN1c1nccnc1OCCOc1cccnc1OCCN(C)C.O=C(O)CCC(=O)O [succinate, (2R)-1-[3-(2-{[2-(2-dimethylaminoethoxy)-3-pyridinyl]oxy}ethoxy)-2-pyrazinyl]-2-methylpiperazine, succinate]
- intrinsic dissolution rate (in words, order) [3]: base<fumarate<succinate
- solubility (in words, comparison of salts) ([7]; salts of Example 2B): higher than the fumarate salt
- Hygroscopicity ([2]; salts of Example 2C): very hygroscopic and deliquescent

Molecule: (2R)-1-(3-{2-[(2-ethoxy-3-pyridinyl)oxy]ethoxy}-2-pyrazinyl)-2-methylpiperazine, fumarate [reference compound]
- Chemical stability [4]: less stable
- Crystallinity (X-Rays) [1]: lower crystallinity
- Hygroscopicity [2, 11]: hydrate conversion

Molecule: (2R)-1-[3-(2-{[2-(2-dimethylaminoethoxy)-3-pyridinyl]oxy}ethoxy)-2-pyrazinyl]-2-methylpiperazine, 1,3,5-benzenetricarboxylate
- solubility (in words, comparison of salts) ([7]; salts of Example 2C): lower than for the phosphoric acid salt
- solubility ([7]; salts of Example 2C, SGF (simulated gastric fluid without enzymes; pH of filtrate 2.9), preliminary studies): > 19 mg/mL
- solubility ([7]; salts of Example 2C, SIF (simulated intestinal fluid without enzymes; pH of filtrate 4.2), preliminary studies): 11 mg/mL
- solubility [7, 12]: ≈ 4 mg/ml
- Crystallinity (Powder X-Ray Diffraction) [1]: predominantly crystalline
- Hygroscopicity ([2]; salts of Example 2C): low

Molecule: (2R)-1-[3-(2-{[2-(2-dimethylaminoethoxy)-3-pyridinyl]oxy}ethoxy)-2-pyrazinyl]-2-methylpiperazine, 1,5-naphthalenedisulfonate
- solubility ([7]; salts of Example 2C, medium not stated): > 540 mg/mL
- Crystallinity (Powder X-Ray Diffraction) [1]: predominantly crystalline
- Hygroscopicity ([2]; salts of Example 2C): moderate

Molecule: (2R)-1-[3-(2-{[2-(2-dimethylaminoethoxy)-3-pyridinyl]oxy}ethoxy)-2-pyrazinyl]-2-methylpiperazine, terephthalate
- solubility [7, 12]: < 1 mg/mL
- Crystallinity (Powder X-Ray Diffraction) [1]: predominantly crystalline
- Hygroscopicity ([2]; salts of Example 2C): hight (deliquescent)

Molecule: (2R)-methyl-1-{3-[2-(3-pyridinyloxy)ethoxy]-2-pyrazinyl}piperazine, cinnamate
- Intrinsic dissolution rate (IDR) ([3]; salts of Example 2A, pH 1.2): 10^−3 mgsec^−1 cm^−2
- Chemical stability [4]: Positive data
- Crystallinity (X-Rays) [1]: Positive results
- behavior upon exposition to 40° C./75% RH ([2]; salts of Example 2A): good behavior
